Results as given in US20250161216A1, “CATIONIC LIPID ANALOGUES, COMPOSITIONS AND USES THEREOF” (GUANGZHOU LIDE BIOMEDICINE TECHNOLOGY CO., LTD., priority 2022, published 2025).

System: C57BL/6 mice
Test: In vivo expression level of Luciferase-mRNA delivered by intravenous injection (bioluminescence imaging)
Conditions: mRNA-loaded nanoparticles, intravenous (tail vein), 5 μg Luciferase-mRNA, 6 hours
Protocol: Luciferase-mRNA was used as an mRNA model; and the cationic lipid analogues of Examples 1-5 were used to prepare drug-loaded nanoparticles according to the method of Example 6.
200 μL of nanoparticles containing 5 μg Luciferase-mRNA or the drug-loaded nanoparticles prepared above were injected into tail veins of 6-8 week-old C57BL/6 mice, and 200 μL of 1×PBS solution containing 3 mg D-Luciferin potassium salt was intraperitoneally injected into the mice 6 hours later. After waiting for 10 minutes, an in vivo expression level of the mRNA was evaluated by bioluminescence imaging.

| SMILES | Fluorescence intensity of spleen (compounds of Example 2) | also measured |
| --- | --- | --- |
| CCCCC/C=C\C/C=C\CCCCCCCC(=O)N(CCN(CC)CC)C(C(=O)NCCCCCCCCCCCCCCCCCC)C(CC)CCCC (stereo not drawn) [A4I18R8C18-2] |  | Fluorescence intensity of liver (compounds of Example 1): 2.48E+04 |
| CCCCCCCC/C=C\CCCCCCCC(=O)N(CCCN(C)C)C(C(=O)NCCCCCCCCCCCCCCCCCC)C(C)C (stereo not drawn) [A1I18R2C18-1] |  | Fluorescence intensity of liver (compounds of Example 1): 2.63E+04 |
| CCCCC/C=C\C/C=C\CCCCCCCC(=O)N(CCOC)C(C(=O)NCCN(C)CCNC(=O)C(C1CCCCC1)N(CCOC)C(=O)CCCCCCC/C=C\C/C=C\CCCCC)C1CCCCC1 (stereo not drawn) [A23I4R23C18-2] | 1.04E+05 |  |
| CCCCCCCCCCSSCCC(=O)N(CCO)C(C(=O)NCCN(C)CCNC(=O)C(C(C)C)N(CCO)C(=O)CCSSCCCCCCCCCC)C(C)C (stereo not drawn) [A1I4R22S15] | 4.10E+03 |  |
| CCCCC/C=C\C/C=C\CCCCCCCC(=O)N(CCO)C(C(=O)NCCN(CCNC(=O)C(C(C)C)N(CCO)C(=O)CCCCCCC/C=C\C/C=C\CCCCC)CCNC(=O)C(C(C)C)N(CCO)C(=O)CCCCCCC/C=C\C/C=C\CCCCC)C(C)C (stereo not drawn) [A1I5R22C18-2] |  | Fluorescence intensity of spleen (compounds of Example 3): 6.90E+05 |
| CCCCCCCCCCCCCCCCCC(=O)N(CCO)C(C(=O)NCCN(C)CCNC(=O)C(C(C)C)N(CCO)C(=O)CCCCCCCCCCCCCCCCC)C(C)C (stereo not drawn) [A1I4R22C18] | 1.10E+05 |  |
| CCCCCCCCCCCCN(C(=O)CO)C(C(=O)NCCN(CCNC(=O)C(C(C)C)N(CCCCCCCCCCCC)C(=O)CO)CCNC(=O)C(C(C)C)N(CCCCCCCCCCCC)C(=O)CO)C(C)C (stereo not drawn) [A1I5R50C21] |  | Fluorescence intensity of spleen (compounds of Example 3): 3.60E+06 |
| CCCCC/C=C\C/C=C\CCCCCCCC(=O)N(CCN1CCCCCC1)C(C(=O)NCCN(C)CCNC(=O)C(C1CC1)N(CCN1CCCCCC1)C(=O)CCCCCCC/C=C\C/C=C\CCCCC)C1CC1 (stereo not drawn) [A21I4R13C18-2] |  | Bioluminescence intensity (compounds of Example 2): 8.67E+02 |
| CCCCCCCC/C=C\CCCCCCCC(=O)N(CCN1CCCCCC1)C(C(=O)NCCN(C)CCNC(=O)C(C(CC)CCCC)N(CCN1CCCCCC1)C(=O)CCCCCCC/C=C\CCCCCCCC)C(CC)CCCC (stereo not drawn) [A4I4R13C18-1] | 1.59E+03 |  |
| CCCCCCCC/C=C\CCCCCCCC(=O)N(CCCN(C)C)C(C(=O)NCCN(C)CCNC(=O)C(C1CCCCC1)N(CCCN(C)C)C(=O)CCCCCCC/C=C\CCCCCCCC)C1CCCCC1 (stereo not drawn) [A23I4R2C18-1] | 1.78E+03 |  |
| CCCCCCCCCCCCCCCC(=O)N(CCO)C(C(=O)NCCN(C)CCNC(=O)C(C(C)C)N(CCO)C(=O)CCCCCCCCCCCCCCC)C(C)C (stereo not drawn) [A1I4R22C16] | 2.30E+03 |  |
| CCCCC/C=C\C/C=C\CCCCCCCC(=O)N(CCN1CCOCC1)C(C(=O)NCCCCCCCCCCCCCCCCCC)C(CC)CCCC (stereo not drawn) [A4I18R4C18-2] |  | Fluorescence intensity of liver (compounds of Example 1): 1.25E+04 |
| CCCCCCCC/C=C\CCCCCCCC(=O)N(CCO)C(C(=O)NCCN(C)CCNC(=O)C(C1CC1)N(CCO)C(=O)CCCCCCC/C=C\CCCCCCCC)C1CC1 (stereo not drawn) [A21I4R22C18-1] | 1.76E+04 |  |
| CCCCCCCCCCCC(=O)N(CCO)C(C(=O)NCCN(C)CCNC(=O)C(C(C)C)N(CCO)C(=O)CCCCCCCCCCC)C(C)C (stereo not drawn) [A1I4R22C12] | 3.90E+03 |  |
| CCCCCCCCCCCCC#CC#CCCCCCCCCC(=O)N(CCCN(CC)CC)C(C(=O)NCCCCCCCCCCCCCCCCCC)C(CC)CCCC (stereo not drawn) [A4I18R3C23] |  | Fluorescence intensity of liver (compounds of Example 1): 7.81E+06 |
| CC/C=C\C/C=C\C/C=C\CCCCCCCC(=O)N(CCCN(CC)CC)C(C(=O)NCCCCCCCCCCCCCCCCCC)C(C)C (stereo not drawn) [A1I18R3C18-3] |  | Fluorescence intensity of liver (compounds of Example 1): 2.22E+04 |
| CCCCCCCCCCCCCCCCCC(=O)N(CCC)C(C(=O)NCCN(C)CCNC(=O)C(C(C)C)N(CCC)C(=O)CCCCCCCCCCCCCCCCC)C(C)C (stereo not drawn) [A1I4R21C18] | 3.46E+04 |  |
| CCCCCCCCCCCC(=O)N(CCO)C(C(=O)NCCN(CCNC(=O)C(C(C)C)N(CCO)C(=O)CCCCCCCCCCC)CCNC(=O)C(C(C)C)N(CCO)C(=O)CCCCCCCCCCC)C(C)C (stereo not drawn) [A1I5R22C12] |  | Fluorescence intensity of spleen (compounds of Example 3): 2.96E+06 |
| CCCCC/C=C\C/C=C\CCCCCCCC(=O)N(CCN(C)C)C(C(=O)NCCCCCCCCCCCCCCCCCC)C(C)C (stereo not drawn) [A1I18R1C18-2] |  | Fluorescence intensity of liver (compounds of Example 1): 2.27E+05 |
| CCCCCCCCCCCCCCCCCC(=O)N(CCOC)C(C(=O)NCCN(C)CCNC(=O)C(C1CC1)N(CCOC)C(=O)CCCCCCCCCCCCCCCCC)C1CC1 (stereo not drawn) [A21I4R23C18] | 2.65E+04 |  |
| CCCCC/C=C\C/C=C\CCCCCCCC(=O)N(CCCN(C)C)C(C(=O)NCCN(C)CCNC(=O)C(C(C)C)N(CCCN(C)C)C(=O)CCCCCCC/C=C\C/C=C\CCCCC)C(C)C (stereo not drawn) [A1I4R2C18-2] | 3.18E+03 |  |
| CCCCCCCCCCCCC#CC#CCCCCCCCCC(=O)N(CCCN(CC)CC)C(C(=O)NCCCCCCCCCCCCCCCCCC)C(CC)CCCC (stereo not drawn) [A4I18R3C18-3] |  | Bioluminescence intensity (compounds of Example 1): 1.32E+07 |
| CC/C=C\C/C=C\C/C=C\CCCCCCCC(=O)N(CCN(C)C)C(C(=O)NCCCCCCCCCCCCCCCCCC)C(CC)CCCC (stereo not drawn) [A4I18R1C18-3] |  | Fluorescence intensity of liver (compounds of Example 1): 3.88E+06 |
| CCCCCCCCCCCCCCCCCC(=O)N(CCN1CCCCCC1)C(C(=O)NCCN(C)CCNC(=O)C(C1CC1)N(CCN1CCCCCC1)C(=O)CCCCCCCCCCCCCCCCC)C1CC1 (stereo not drawn) [A21I4R13C18] | 1.12E+03 |  |
